Literature values in patent EP4005587B1, “PHARMACEUTICAL COMPOSITION FOR TREATING LEVODOPA-INDUCED DYSKINESIA OR FOR SUPPRESSING PROGRESSION THEREOF” (Peptron, Inc., priority 2019, dated 2026).

Experiments:
[1] = tested on: MPTP mouse model for Parkinson's disease; conditions: given daily for 7 days after treatment
[2] = compared to GLP-1-Tf

Substance: exendin-4
- acute effects of L-DOPA (lesioned rats; lesioned rats): potentiated
- 6-OHDA induced damage (lesioned rats; rat, in vivo): reduces 6-OHDA induced damage
- LIDS (lesioned rats; rat, in vivo): progressive reduction
- neuro-protection [1]: not effective
- rotarod performance [2]: improve rotarod performance
